Laboratory results as given in US10683287B2, “Heterocyclic derivatives and their use in the treatment of neurological disorders” (Novartis AG, priority 2011, dated 2020).

What follows are compounds tested on Cellular Release of Amyloid Peptide 1-40 (assay: Test 4: Inhibition of Cellular Release of Amyloid Peptide 1-40). Details: Cricetulus griseus, 24 h; read-out: Amyloid-β1-40 release IC50.
Assay type: cell-based, Chinese hamster
Description: Chinese hamster ovary cells are transfected with the human gene for amyloid precursor protein. The cells are plated at a density of 8000 cells/well into 96-well microtiter plates and cultivated for 24 hours in DMEM cell culture medium containing 10% FCS. The test compound is added to the cells at various concentrations, and the cells are cultivated for 24 hours in the presence of the test compound.

IC50 [nM] | Compound
2 | Cc1cc(C#N)cnc1C(=O)Nc1ccc(F)c([C@]2(C)CO[C@@](C)(C(F)(F)F)C(N)=N2)n1 [Example 11, 5-Cyano-3-methyl-pyridine-2-carboxylic Acid [6-((3R,6R)-5-amino-3,6-dimethyl-6-trifluoromethyl-3,6-dihydro-2H-[1,4]oxazin-3-yl)-5-fluoro-pyridin-2-yl]-amide]
370 | COCCn1ccc2nc(C(=O)Nc3ccc(F)c([C@]4(C)CO[C@@](C)(C(F)(F)F)C(N)=N4)n3)c(N)nc21 [Example 43, 3-Amino-5-(2-methoxy-ethyl)-5H-pyrrolo[2,3-b]pyrazine-2-carboxylic acid [6-((3R,6R)-5-amino-3,6-dimethyl-6-trifluoromethyl-3,6-dihydro-2H-[1,4]oxazin-3-yl)-5-fluoro-pyridin-2-yl]amide]

Compound | IC50 [nM]
COc1cnc(C(=O)Nc2ccc(F)c([C@]3(C)CO[C@@](C)(C(F)(F)F)C(N)=N3)n2)c(C)c1 [Example 25, 5-Methoxy-3-methyl-pyridine-2-carboxylic acid [6-((3R,6R)-5-amino-3,6-dimethyl-6-trifluoromethyl-3,6-dihydro-2H-[1,4]oxazin-3-yl)-5-fluoro-pyridin-2-yl]amide] | 76
